Reference: paper PMC12480552 (Scientific Reports, 2025)
Where two headings read alike, the source gives them in different places.

Experiments:
in vivo = details: male, rhesus monkey; for Kp / Kp uu: brain
Protocol: Animals were randomized using the GSK Randomization App 2.0, which is an internal software tool that uses the ‘sample’ function in R to randomly shuffle animal IDs, then assigns them to treatment groups to ensure unbiased allocation.
Before each dose, animals were lightly sedated with an intramuscular injection of ketamine (5–10 mg/kg), and a blood sample was drawn. […] NHPs were euthanized by administering an overdose of injected sodium pentobarbital IV (150–200 mg/kg) and confirmed by thoracotomy and exsanguination. Terminal plasma, cerebrospinal fluid, and brain tissue were collected at necropsy. […] The brain was cut into six roughly 1-cm thick coronal segments before snap-freezing by floating on liquid nitrogen. The right hemispheres of the four interior coronal brain segments were cryosectioned and analyzed by matrix-assisted laser desorption/ionization mass spectrometry imaging (MALDI MSI) to quantitatively assess the tissue distribution of the dosed compounds[40]–[43]. After MALDI MSI analysis, tissue sections were stained with hematoxylin and eosin (H&E) for correlation of ion images with underlying tissue histology.
Brain tissue was weighed in polypropylene tubes, then phosphate-buffered saline (PBS) was added to the tissue sample before homogenization (1:4 wt: vol).
The LC-MS/MS system includes an API-6500 triple quadrupole mass spectrometer (Sciex, Framingham, MA) and an ExionLC system (ExionLC Controller, ExionLC AD Column Oven, ExionLC AD Pump, and ExionLC AD Multiplate Sampler; all from Sciex). Data were acquired and processed using Analyst® 1.7.2 software (Sciex). An Acquity UHPLC BEH C18 analytical column (1.7-µm, 2.1 × 50 mm; Waters, Milford, MA) was applied in sample analysis.
First, the brain tissue partition coefficient Kp, brain was calculated using Eq. (1).
Where Css, brain is the mean steady-state total drug concentration in brain tissue, and Css, plasma is the mean steady-state total drug concentration in plasma (both measured by LC-MS/MS). […] Finally, Kp, uu, brain was calculated using Eq. (2).2 [drawing 2]

[1] = MALDI MSI of brain sections, mouse model of brain metastasis (MDA231-BrM2-831); assay type: in vivo, NCr nude mice
Text: A luciferase-transfected human breast adenocarcinoma cell line (MDA 231-BRM2-831) was used to generate a metastatic brain tumor model in female athymic nude mice. […] NCr nude mice (strain: CrTac: NCr-Foxn1^nu; female; 5-7 weeks old; Taconic Biosciences (Germantown, NY)) were used for these studies. A power analysis was completed by a statistician to determine the appropriate sample sizes for each group to measure a statistically significant. […] Control mice (n = 10) underwent a sham IC procedure (needle insertion into the ventricle without cell injection. All mice were monitored for tumor development by bioluminescence imaging (BLI) approximately once weekly for ~ 45 days, beginning 1 h after cell injection. In vivo BLI was performed at ~ 10 min post-luciferin injection (corresponding to the peak bioluminescent signal) using an IVIS Spectrum-CT system (PerkinElmer, Waltham, MA). Imaging parameters were set to automatic exposure in the Living Image software, while the binning (8) and aperture (open f-stop) remained at the default settings for all BLI acquisitions. The imaging frequency was increased to twice weekly for mice that developed brain metastases (BMs) as indicated by increased bioluminescence in the cranial region. […] The exact tumor size was not measured as an endpoint of this study. […] Two hours after the final dose, mice were euthanized by CO2 asphyxiation. At necropsy, a terminal blood sample was collected via cardia puncture, and the brains were harvested and snap-frozen by floating on liquid nitrogen. […] From each plane, serial tissue sections were collected for MALDI MSI and for H&E staining, and immunohistochemistry (IHC) staining. Tissue trimmings from between each plane were collected, homogenized, and submitted for bioanalysis in addition to the terminal plasma samples. For the mouse metastases study, tissue sections were collected from five horizontal tissue planes starting from roughly 1 mm from the top of the tissue, and each subsequent tissue plane was separated by roughly 1 mm. […] For MALDI MSI analysis, sections were thaw-mounted onto indium tin oxide-coated slides (Delta Technologies, Ltd, Loveland, CO). For H&E and IHC analyses, tissue sections were collected onto superfrost glass slides (Fisher Scientific, Waltham, MA). Brain tissue trimmings from between each of the horizontal planes were pooled and collected into a pre-weighed vial for homogenization and LC-MS/MS bioanalysis (described in detail later). […] Arraymold, Ogden, UT). […] DMSO: […] […] Ion images were loaded into […] […] Statistical significance was set at p < 0.05.

human P-gp = details: MDCKII cells overexpressing human P-gp; cited from earlier work
[2] = Protein binding by rapid equilibrium dialysis, CD1 mouse brain and plasma; details: pH 7.4
Text: (§1) The luciferase-transfected human breast cancer cell line (MDA231-BrM2-831) was purchased from Memorial Sloan Kettering Cancer Center (New York, NY). […] Deuterated olaparib (olaparib-d8) was purchased from Alsachim (Illkirch Graffenstaden, France). Cynomolgus macaque brain tissue (lot #CYN252598), rhesus macaque brain tissue (lot #RHS24901), rhesus macaque plasma (lot #RHS24900), CD1 mouse brain tissue (lot #MSE343926), and CD1 mouse plasma (lot #MSE343926) used in the protein-binding assays were obtained from BioIVT (Westbury, NY).
(§2) Brain (diluted 1:4 [5×] in PBS) or plasma (undiluted) were spiked with each test compound and applied to each matrix. Aliquots of each mixture were added to the donor wells of a rapid equilibrium dialysis plate in triplicate, and blank PBS was added to each receiver well, at volumes recommended by the manufacturer. Plates were incubated with shaking at 200 rpm for 4 h at 37 °C. At the end of incubation, samples were collected from each donor and receiver well. Samples were matrix-matched with the addition of an equivalent volume of blank matrix to each receiver sample and blank PBS to each donor sample. Additional samples were collected from each incubation mixture at the beginning (T = 0 min) and end (T = 240 min) of incubation for determination of stability, and matrix-matched with PBS as described above. The resultant samples were extracted by protein precipitation with acetonitrile containing an analytical internal standard, centrifuged, and analyzed by LC-MS/MS.

[3] = Protein binding by rapid equilibrium dialysis, rhesus macaque brain and plasma; details: rhesus monkey, pH 7.4
Text: as §1, §2

[4] = BM mice (niraparib n = 4, olaparib n = 3), oral once daily 5 days, niraparib 35 mg/kg or olaparib 50 mg/kg, 2 h after final dose, LOD 70 ng/g niraparib, 170 ng/g olaparib

NC(=O)c1cccc2cn(-c3ccc([C@@H]4CCCNC4)cc3)nc12 [Niraparib]
Kp (in vivo; Mean Kp): 3.18 | Kp uu (in vivo; Mean Kp): 0.313 | concentration at 2 h ([1]; female, NCr nude (CrTac:NCr-Foxn1nu), mouse, brain (sections), oral, 35 mg/kg, read-out: MALDI MSI Brain sections, mean (SD)): 519 ng/g | concentration at 2 h ([1]; female, NCr nude (CrTac:NCr-Foxn1nu), mouse, brain metastasis tumor tissue, oral, 35 mg/kg, all tumor-containing sections (n = 42) in all BM animals (n = 4), niraparib 35 mg/kg, read-out: MALDI MSI mean localized tumor concentration): ~1700 ng/g | concentration at 2 h ([1]; female, NCr nude (CrTac:NCr-Foxn1nu), mouse, brain tumor, oral, 35 mg/kg, read-out: MALDI MSI Brain tumors, mean (SD)): 2400 ng/g | concentration at 2 h ([1]; female, NCr nude (CrTac:NCr-Foxn1nu), mouse, brain ventricles, oral, 35 mg/kg, all ventricle-containing sections (n = 48) in all BM animals, niraparib 35 mg/kg, read-out: MALDI MSI mean concentration in the ventricles): ~1860 ng/g | concentration at 2 h ([1]; female, NCr nude (CrTac:NCr-Foxn1nu), mouse, brain, oral, 35 mg/kg, read-out: MALDI MSI Brain sections, mean (SD)): 487 ng/g | Kp at 2 h ([1]; female, NCr nude (CrTac:NCr-Foxn1nu), mouse, oral, 35 mg/kg, BM mice, mean brain tumor ROI total concentration by MALDI MSI versus terminal plasma total concentration): 0.945 | concentration at 2 h ([1]; female, NCr nude (CrTac:NCr-Foxn1nu), mouse, whole brain (sections), oral, 35 mg/kg, Brain Metastases, Mouse 1, Fig. 2B, read-out: MALDI MSI Mean Conc., whole brain, individual mouse): 430 ng/g | concentration at 2 h ([1]; female, NCr nude (CrTac:NCr-Foxn1nu), mouse, whole brain (sections), oral, 35 mg/kg, Brain Metastases, Mouse 2, Fig. 2B, read-out: MALDI MSI Mean Conc., whole brain, individual mouse): 640 ng/g | concentration at 2 h ([1]; female, NCr nude (CrTac:NCr-Foxn1nu), mouse, whole brain (sections), oral, 35 mg/kg, Brain Metastases, Mouse 3, Fig. 2B, read-out: MALDI MSI Mean Conc., whole brain, individual mouse): 540 ng/g | concentration at 2 h ([1]; female, NCr nude (CrTac:NCr-Foxn1nu), mouse, whole brain (sections), oral, 35 mg/kg, Brain Metastases, Mouse 4, Fig. 2B, read-out: MALDI MSI Mean Conc., whole brain, individual mouse): 340 ng/g | concentration at 2 h ([1]; female, NCr nude (CrTac:NCr-Foxn1nu), mouse, whole brain (sections), oral, 35 mg/kg, No Brain Metastases, Mouse 8, Fig. 2B, read-out: MALDI MSI Mean Conc., whole brain, individual mouse): 400 ng/g | concentration at 2 h ([1]; female, NCr nude (CrTac:NCr-Foxn1nu), mouse, whole brain (sections), oral, 35 mg/kg, No Brain Metastases, Mouse 9, Fig. 2B, read-out: MALDI MSI Mean Conc., whole brain, individual mouse): 560 ng/g | concentration at 2 h ([1]; female, NCr nude (CrTac:NCr-Foxn1nu), mouse, whole brain (sections), oral, 35 mg/kg, No Brain Metastases, Mouse 10, Fig. 2B, read-out: MALDI MSI Mean Conc., whole brain, individual mouse): 600 ng/g | P-gp substrate status (human P-gp): substrates for P-gp | fraction unbound at 4 h, 1 µM ([2]; brain homogenate (diluted 1:4 [5×] in PBS)): 0.0295 | fraction unbound at 4 h, 1 µM ([2]; cynomolgus monkey, brain homogenate (diluted 1:4 [5×] in PBS)): 0.0361 | fraction unbound at 4 h, 1 µM ([2]; plasma (undiluted)): 0.22 | fraction unbound at 4 h, 1 µM ([3]; plasma (undiluted)): 0.366

O=C(c1cc(Cc2n[nH]c(=O)c3ccccc23)ccc1F)N1CCN(C(=O)C2CC2)CC1 [Olaparib]
Kp, brain (in vivo): 0.044 | Kp, uu, brain (in vivo): 0.028 | Kp (in vivo; Kp): 0.037 | Kp uu (in vivo; Kp): 0.024 | Kp (in vivo; Mean Kp): 0.041 | Kp uu (in vivo; Mean Kp): 0.026 | MALDI MSI Brain sections, mean (SD) [1, 4]: < LOD | MALDI MSI Brain tumors, mean (SD) [1, 4]: < LOD | MALDI MSI Brain sections, mean (SD) ([1]; No BM mice (n = 3), oral once daily 5 days, niraparib 35 mg/kg or olaparib 50 mg/kg, 2 h after final dose, LOD 70 ng/g niraparib, 170 ng/g olaparib): < LOD | P-gp substrate status (human P-gp): substrates for P-gp | fraction unbound at 4 h, 1 µM ([2]; CD1, mouse, brain homogenate): 0.23 | Fu ([2]; CD1, mouse, plasma, 4 h, 1 µM): 35.2% | fraction unbound at 4 h, 1 µM ([3]; brain homogenate): 0.194 | fraction unbound at 4 h, 1 µM ([3]; plasma): 0.301
